Converted amounts (≈) assume the structure as drawn.

For this data set the following is noted: buffer; pH 7.4; 200.0 µM.
`CN(CCO)CC(O)CN(c1ccccc1)c1ccccc1.Cl` (stereo not given): the solubility (kinetic) is 49.9 µg/mL.

Regarding `Cc1ccc2nc(C)c(C(=O)O)cc2c1`, the kinetic solubility was more than 30.2 µg/mL. As for `COC(=O)/C=C1\N/C(=N/c2nc(C)c3cc(OC)ccc3n2)NC1=O`, the kinetic solubility is 1.4 µg/mL (≈ 4.1 µM). For `O=C(CN1C(=O)c2ccccc2C1=O)NC1CCCCC1`, the solubility (kinetic) amounted to 33.4 µg/mL (≈ 117 µM). The molecule `Cc1ccc(Sc2ncccc2O)cc1` displayed a solubility (kinetic) of 17.4 µg/mL (≈ 80.1 µM).

Turning to `Cn1c(S(=O)(=O)O)nc2ccccc21`, the solubility (kinetic) was 31.5 µg/mL (≈ 148 µM). Regarding `CC1CCCC(C)N1C(=O)COC(=O)c1ccc(Br)o1` (stereo not given), the solubility (kinetic) is more than 51.6 µg/mL. The molecule `CCOC(=O)c1c(NC(=S)N2CCOCC2)sc(C)c1C` returned a solubility (kinetic) of less than 0.4 µg/mL. The value for `C/C(=N/NC(=O)c1ccncc1)c1ccc2c(c1)OCO2` was more than 42.5 µg/mL; that for `COc1ccc(C(=O)NC(=S)N2CCN(c3ccccc3O)CC2)cc1` was 6.1 µg/mL (≈ 16.4 µM). `CC(=O)N1CCN(Cc2nc3cc(Cl)ccc3c(=O)[nH]2)CC1`: the kinetic solubility is more than 48.1 µg/mL.

As for `Cc1ccccc1N1CCN(Cc2cc3c(cc2[N+](=O)[O-])OCO3)CC1`, the solubility (kinetic) came to 3.5 µg/mL (≈ 9.85 µM). Consider `CN(CCOc1ccc(CC2SC(=O)NC2=O)cc1)c1ccccn1.O=C(O)/C=C\C(=O)O` (stereo not given), for which the kinetic solubility is 68.2 µg/mL. For `CCCOc1ccc2ccccc2c1/C=C1\SC(=O)NC1=O`, the solubility (kinetic) was more than 47 µg/mL. As for `CC(C1CC1)N(C(=O)c1ccccc1[N+](=O)[O-])c1ccccc1` (stereo not given), the solubility (kinetic) turned out to be 13 µg/mL (≈ 41.9 µM). On to `COc1ccc(S(=O)(=O)NC2CCCC2)cc1NC(C)=O`, for which the kinetic solubility is more than 46.9 µg/mL. `COc1ccc2c(c1OC)C(=O)N(c1ccc(O)cc1)C2=O` gave a solubility (kinetic) of 41.4 µg/mL (≈ 138 µM). As to `O=C(NCc1ccccc1)/C(=C/c1ccco1)NC(=O)c1ccco1`, the solubility (kinetic) is more than 50.5 µg/mL. Regarding `COCCNC(=O)CSc1ccccc1C(=O)O`, the solubility (kinetic) is more than 40.4 µg/mL.

Regarding `O=C(COC(=O)c1cc([N+](=O)[O-])ccc1Cl)NC1CCCC1`, the solubility (kinetic) was more than 49 µg/mL. The molecule `CCOc1ccc(CN(C)C(=O)CNC(=O)C2CCCCC2)cc1` came in with a kinetic solubility of more than 49.9 µg/mL. Regarding `c1ccc(-c2nc(-c3cccnc3)cs2)cc1`, the solubility (kinetic) was found to be 21.4 µg/mL (≈ 89.8 µM).

In the case of `CC1(O)CCN2C(=O)CCc3cccc1c32` (stereo not given), the solubility (kinetic) is 19.3 µg/mL (≈ 88.8 µM). `O=C(NCc1csc(-c2cccs2)n1)C1CC1` came in with a kinetic solubility of 34.3 µg/mL (≈ 130 µM). As for `Cc1ccc(OCCCCCN2CCOCC2)cc1`, the figure is 32.3 µg/mL (≈ 123 µM); as for `CN(C)C(=O)Nc1ccccc1`, more than 24.6 µg/mL. `CCCCCCn1c(N2CCCC2)nc2c1c(=O)n(C)c(=O)n2C` registered a solubility (kinetic) of 48.6 µg/mL (≈ 146 µM).

In the case of `COc1cc(S(=O)(=O)N2CCN(Cc3ccc4c(c3)OCO4)CC2)ccc1NC(C)=O.Cl`, the kinetic solubility worked out at 10.5 µg/mL. The molecule `CC(=O)Nc1cc(NC(C)=O)cc(-c2nc3ccccc3[nH]2)c1` registered a kinetic solubility of more than 46.3 µg/mL. `O=C(CCn1cnc2ccccc2c1=O)Nc1cccc(Cl)c1Cl`: the solubility (kinetic) was determined as 3.8 µg/mL (≈ 10.5 µM).

`O=C(/C=C/c1ccccc1)OCc1cncs1` registered a solubility (kinetic) of 32.2 µg/mL (≈ 131 µM).

Molecule `Cc1cc(C)c(C(=O)NCCCN2CCOCC2)c(C)c1` had a kinetic solubility of more than 43.6 µg/mL. In turn, `CCCc1cc(=O)[nH]c(SCC(=O)N2c3ccccc3CC2C)n1` (stereo not given) displayed a kinetic solubility of more than 51.5 µg/mL. `Cc1sc(NC(=O)Nc2ccccc2)c(C(N)=O)c1C` had a solubility (kinetic) of 5.1 µg/mL (≈ 17.6 µM). The value for `CC(C)CN(C(=O)C1CCCCC1)C1CCS(=O)(=O)C1` (stereo not given) was more than 45.2 µg/mL; that for `CSc1ccccc1Nc1ncnc(N)n1` was 25.8 µg/mL (≈ 111 µM). The molecule `O=C(CSc1ccc2c(c1)OCCO2)NCc1ccccc1` displayed a kinetic solubility of 44 µg/mL (≈ 140 µM). The value for `OC1(c2ccc3c(c2)OCO3)CCN(Cc2ccc(F)cc2)CC1` was more than 49.4 µg/mL. The molecule `COc1cc2ccccc2cc1C(=O)N1CCCCC1` displayed a kinetic solubility of more than 40.4 µg/mL.

As for `CN1CCC(N(C)C(=O)COc2ccccc2Cl)CC1`, the kinetic solubility is more than 44.5 µg/mL. In turn, `CCN(CC(=O)NCc1cccs1)C(=O)c1cccc(S(=O)(=O)N(C)C)c1` registered a kinetic solubility of more than 61.4 µg/mL. As for `O=C(CN1CCCc2ccccc21)Nc1ccc(F)cc1[N+](=O)[O-]`, the figure is less than 0.2 µg/mL; as for `N#Cc1ccc(OCC(=O)Nc2ccncc2)cc1`, 36 µg/mL (≈ 142 µM); as for `COC(=O)c1cc(S(=O)(=O)N2CCC(C(N)=O)CC2)oc1C`, more than 49.6 µg/mL. As for `O=C1NC(=O)/C(=C/c2ccc(-c3cccc([N+](=O)[O-])c3)o2)S1`, the figure is 3.8 µg/mL (≈ 12 µM); as for `CCOC(=O)Cn1cc(C(=O)C(=O)N2CCOCC2)c2ccccc21`, more than 51.7 µg/mL; as for `NC(=O)COc1ccc(NS(=O)(=O)Cc2ccccc2)cc1`, 46.1 µg/mL (≈ 144 µM). On to `O=C(CCSc1ccc(Cl)cc1)NCc1ccncc1`, for which the solubility (kinetic) was more than 46 µg/mL. For the molecule `O=C(NCCc1ccc(Cl)cc1)Nc1ccc(Cl)cc1`, the kinetic solubility was less than 0.3 µg/mL.

With `O=C(NCc1ccc2c(c1)OCO2)c1cc(=O)[nH]c2ccccc12`, the kinetic solubility came to 6 µg/mL (≈ 18.6 µM). Regarding `NC(=O)CSc1nc(-c2ccccc2)nc2ccccc12`, the kinetic solubility came to 0.7 µg/mL (≈ 2.37 µM). `COc1cccc(NC(=O)CN(C)CC(=O)NCC(=O)Nc2ccc(F)cc2)c1` had a solubility (kinetic) of more than 60.4 µg/mL. Regarding `COc1ccc(-c2nc(C)ncc2-c2ccccc2)c(O)c1`, the solubility (kinetic) was determined as 6.4 µg/mL (≈ 21.9 µM).

In the case of `COc1ccccc1OC(C)C(=O)Nc1ccc2c(c1)OCCO2` (stereo not given), the kinetic solubility is more than 49.4 µg/mL.

In turn, `OC1=C(O)c2nc3cc(F)ccc3nc21` returned a solubility (kinetic) of more than 30.6 µg/mL.

`COC(=O)c1c(C)nsc1NC(=O)Oc1ccccc1` yielded a solubility (kinetic) of 2.7 µg/mL (≈ 9.24 µM). Take `COc1ccc(C(=O)Nc2ccc3ncccc3c2)cc1`: the kinetic solubility turned out to be 12.1 µg/mL (≈ 43.5 µM). `CN(C(=O)C(Cl)Cl)C1CC2C=CC1C2` (stereo not given) returned a kinetic solubility of 30.7 µg/mL (≈ 131 µM). `COc1cccc(Nc2nc(-c3cccnc3)cs2)c1` came in with a solubility (kinetic) of 1.3 µg/mL (≈ 4.59 µM). The value for `CC1=C(C#N)C(c2ccc(O)cc2)C(C#N)=C(C)N1` was more than 37.7 µg/mL; that for `CCC1CCc2sc(C(=O)N3CCCN(C)CC3)cc2C1` (stereo not given) was 37.5 µg/mL (≈ 122 µM); that for `COc1ccccc1CNS(=O)(=O)c1cccs1` was more than 42.5 µg/mL. With `Nc1ccccc1NC(=O)NC(=O)c1ccccc1`, the kinetic solubility is 6.1 µg/mL (≈ 23.9 µM). As for `COc1ccccc1NC(=O)C(C)OC(=O)Cc1ccsc1` (stereo not given), the figure is more than 47.9 µg/mL; as for `COc1ccc(C(=O)O/N=C(/C(N)=O)P(=O)(OC(C)C)OC(C)C)cc1`, 49.1 µg/mL (≈ 127 µM); as for `CC1CCc2c(sc(NC(=O)/C=C/c3cccs3)c2C(=O)O)C1` (stereo not given), more than 52.1 µg/mL. As to `COc1ccc(F)cc1S(=O)(=O)NCC1CCCO1` (stereo not given), the solubility (kinetic) was more than 43.4 µg/mL.

On to `O=C(Nc1ccccc1)/C(=C1\CCCN1)[N+](=O)[O-]`, for which the solubility (kinetic) turned out to be 29.6 µg/mL (≈ 120 µM).

Take `COc1ccccc1N1CCN(C(=O)c2cc3ccccc3[nH]2)CC1`: the kinetic solubility worked out at 2.7 µg/mL (≈ 8.05 µM).

Consider `O/N=C/c1nc2cc(Cl)ccc2o1`, for which the solubility (kinetic) is more than 29.5 µg/mL.

On to `CC(=O)Nc1ccc(C(=S)NCCCO)cc1`, for which the solubility (kinetic) was more than 37.8 µg/mL. `N#Cc1c(N2CCOCC2)nsc1-c1ccc(C(F)(F)F)cc1` showed a solubility (kinetic) of less than 0.2 µg/mL. Regarding `Cc1ccc(S(=O)(=O)CCSc2nccn2C)cc1`, the solubility (kinetic) is more than 44.5 µg/mL.

In turn, `CC1CCCCC1NC(=O)NC(=O)COC(=O)c1nccnc1N` (stereo not given) showed a kinetic solubility of more than 50.3 µg/mL. On to `Cn1c(N)c(C(=O)c2ccc(Cl)c(S(=O)(=O)N3CCCCCC3)c2)c(=O)n(C)c1=O`, for which the solubility (kinetic) is more than 68.2 µg/mL. In the case of `CC(=O)N(C)c1ccc(NC(=O)Nc2ccc(Cl)cc2)cc1`, the kinetic solubility was determined as 45.2 µg/mL (≈ 142 µM). In turn, `CCN(CC)c1ccc(NC(=S)NCC2CCCO2)cc1` (stereo not given) displayed a solubility (kinetic) of 34.1 µg/mL (≈ 111 µM). As for `O=C(c1cccc([N+](=O)[O-])c1)N1CC2C3C=CC(C3)C2C1` (stereo not given), the figure is more than 42.6 µg/mL. The value for `COc1ccc(NC(=O)COC(=O)c2ccc(F)cc2F)cc1` was more than 48.2 µg/mL; that for `CCCNC(=O)CN1CCC(c2nc3ccccc3[nH]2)CC1` was 34 µg/mL (≈ 113 µM). Turning to `O=C(COC(=O)COc1ccc(Br)cc1)NCC1CCCO1` (stereo not given), the kinetic solubility was more than 55.8 µg/mL. The molecule `Cc1ccc(-c2csc(NC(=O)c3cccc(C)c3)c2C(=O)O)cc1` gave a kinetic solubility of more than 52.7 µg/mL.

On to `CCOC(=O)c1sc(NC(=O)c2ccc(OC(C)=O)cc2)nc1C`, for which the kinetic solubility was determined as 0.7 µg/mL (≈ 2.01 µM). On to `Cc1ccsc1C(=O)NCCc1nnc2ccccn12`, for which the solubility (kinetic) is more than 43 µg/mL. Molecule `Cc1c(Cl)cccc1Nc1ncccc1C(=O)O` had a solubility (kinetic) of 34 µg/mL (≈ 129 µM). In turn, `COc1ccc(C(=O)COC(=O)c2cccnc2SC)cc1` returned a kinetic solubility of less than 0.7 µg/mL. Consider `Cc1cccc(N2CCN(C(=O)c3cccs3)CC2)c1C`, for which the kinetic solubility worked out at 23.8 µg/mL (≈ 79.2 µM).

Molecule `COc1ccc2c(C(=O)CCl)c[nH]c2c1` had a solubility (kinetic) of 5.3 µg/mL (≈ 23.7 µM).

Turning to `CCOC(=O)c1ccc2[nH]c3c(c2c1)CCCC3NC=O` (stereo not given), the kinetic solubility is more than 42.9 µg/mL.

On to `OCC1(CCOc2ccccc2)CCN(Cc2ccncc2)CC1`, for which the solubility (kinetic) was 39 µg/mL (≈ 119 µM). In turn, `O=C(Nc1ccc(N2CCCC2)cc1)c1cccc(Cl)c1Cl` yielded a solubility (kinetic) of less than 0.4 µg/mL. As to `COC(=O)[C@H](CC(C)C)NC(=O)NCCC1=CCCCC1`, the kinetic solubility is more than 44.5 µg/mL. The value for `COc1cc(C(=O)OCC(=O)NC2CC2)ccc1OCCC(C)C` was 6.8 µg/mL (≈ 20.3 µM). The value for `N#Cc1ccc(OCC(=O)N2CCc3ccccc32)cc1` was 1.8 µg/mL (≈ 6.47 µM).

In turn, `O=S(=O)(c1cccc2nonc12)N1CCCCCC1` gave a solubility (kinetic) of 15.7 µg/mL (≈ 55.8 µM).

Molecule `O=C(Nc1ccc(C(=O)OC2CCCCC2)cc1)c1ccncc1` had a kinetic solubility of 2.8 µg/mL (≈ 8.63 µM). The molecule `Cc1cc(Cl)cc(C)c1OCCCCCn1ccnc1` registered a kinetic solubility of 30.7 µg/mL (≈ 105 µM). Turning to `O=C(c1cccc(C(F)(F)F)c1)N1CCOc2ccccc21`, the kinetic solubility worked out at 37.5 µg/mL (≈ 122 µM). The value for `O=c1[nH]c(SCc2c(Cl)cccc2Cl)nc2ccccc12` was less than 0.4 µg/mL; that for `CC(=O)N1C(C)(C)CC(=NOC(=O)c2ccc(C)cc2)CC1(C)C` was more than 49.6 µg/mL; that for `COc1ccc(C(=O)N2CCCN(C)CC2)c(OC)c1` was 36.5 µg/mL (≈ 131 µM).

As to `Cl.O=S(=O)(CCC1CCCCN1)c1ccccc1` (stereo not given), the solubility (kinetic) was more than 43.5 µg/mL.

With `CCc1cccc(NC(=O)C2CC2c2ccccc2)c1` (stereo not given), the kinetic solubility was found to be 0.7 µg/mL (≈ 2.64 µM). `CCN(C(=O)c1cc(Cl)ccc1Cl)C1CCS(=O)(=O)C1` (stereo not given) showed a solubility (kinetic) of more than 50.4 µg/mL. `CN1C/C(=C/c2ccncc2)C(=O)/C(=C/c2ccncc2)C1` displayed a kinetic solubility of 40.9 µg/mL (≈ 140 µM).
